These results are taken from ChEMBL document CHEMBL2029263, “New myrsinol diterpenes from Euphorbia prolifera and their inhibitory activities on LPS-induced NO production” (Bioorg Med Chem Lett, 2012).

The test system of data set [1] is BV-2. As to the kind of experiment: Inhibition of LPS-induced NO production in mouse BV2 cells after 20 hrs by Griess assay. As to conditions: BV-2, 20 h. Format: functional, cell-based.
The test system of data set [2] is BV-2. As to the kind of experiment: Cytotoxicity against mouse BV2 cells at effective concentration after 20 hrs by MTT assay. Format: cell-based. As to conditions: bv-2, 20 h.

Structures are written as SMILES.

For `CCC(=O)O[C@@H]1[C@@H]2[C@@H](OC(C)=O)[C@@]34CO[C@@](C)([C@H](OC(=O)c5cccnc5)[C@@]2(OC(C)=O)C[C@@H]1C)[C@@H]3[C@@H](C(C)(C)OC(C)=O)C=CC4=O` [EUPHORBIALOID F], the concentration for half-maximal inhibition (IC50) with BV-2 [1] worked out at 36.5 µM. Moreover, the Activity entry in the data set on BV-2 [2] is listed as “Non-toxic”.

In turn, `C=C(C)[C@H]1C=C[C@@H](OC(=O)c2cccnc2)[C@@]23CO[C@@](C)([C@H](OC(=O)c4cccnc4)[C@@]4(OC(C)=O)C[C@H](C)[C@H](OC(=O)CC)[C@@H]4[C@H]2OC(C)=O)[C@H]13` returned an IC50 in the data set on BV-2 [1] of 80.2 µM. Further, the Activity result in the data set with BV-2 [2] was “Non-toxic”.

`CCC(=O)O[C@@H]1[C@@H]2[C@@H](OC(=O)c3ccccc3)[C@@]3(COC(=O)c4cccnc4)[C@@H]([C@@H]4[C@H](C[C@H]3OC(C)=O)C4(C)C)[C@](C)(OC(C)=O)C(=O)[C@@]2(O)C[C@@H]1C` [EUPHORBIALOID C] had a 50% inhibitory concentration (IC50) with BV-2 [1] of 29.7 µM. The Activity result in the data set on BV-2 [2] is recorded as “Non-toxic”.

In the data set on BV-2 [1], `CCCC(=O)O[C@@H]1[C@@H]2[C@@H](OC(=O)c3ccccc3)[C@@]3(COC(=O)c4cccnc4)[C@@H]([C@@H]4[C@H](C[C@H]3OC(C)=O)C4(C)C)[C@](C)(OC(C)=O)C(=O)[C@@]2(O)C[C@@H]1C` [EUPHORBIALOID D] registered a concentration for half-maximal inhibition (IC50) of 35.2 µM. Further, the Activity entry in the data set on BV-2 [2] is on record as “Non-toxic”.

`CSC(=N)N` came in with a concentration for half-maximal inhibition (IC50) in the data set on BV-2 [1] of 13.2 µM.

In turn, `CCC(=O)O[C@@H]1[C@@H]2[C@@H](OC(C)=O)[C@@]34CO[C@@](C)([C@H](OC(=O)c5cccnc5)[C@@]2(OC(C)=O)C[C@@H]1C)[C@@H]3[C@@H]1[C@@H](C[C@]1(C)OC(C)=O)[C@@H](OC(=O)c1ccccc1)C4=O` [EUPHORBIALOID H] came in with an IC50 in the data set on BV-2 [1] of 64.3 µM. Further, the Activity entry in the data set with BV-2 [2] was “Non-toxic”.

`CC(=O)O[C@@H]1[C@@H]2[C@@H](OC(=O)c3ccccc3)[C@@]3(COC(=O)c4cccnc4)[C@@H]([C@@H]4[C@H](C[C@H]3OC(C)=O)C4(C)C)[C@](C)(O)C(=O)[C@@]2(O)C[C@@H]1C` [EUPHORBIALOID B] showed an IC50 in the data set with BV-2 [1] of 15.6 µM. Besides, in the data set with BV-2 [2], the Activity result was “Non-toxic”.

`C=C(C)[C@H]1C=C[C@@H](OC(=O)c2ccccc2)[C@@]23CO[C@@](C)([C@H](OC(=O)c4cccnc4)[C@@]4(OC(C)=O)C[C@H](C)[C@H](OC(=O)CC)[C@@H]4[C@H]2OC(C)=O)[C@H]13` displayed a half-maximal inhibitory concentration (IC50) in the data set on BV-2 [1] of 74.3 µM. Besides, the Activity entry in the data set with BV-2 [2] is recorded as “Non-toxic”.

The compound `CCC(=O)O[C@@H]1[C@@H]2[C@@H](OC(=O)c3ccccc3)[C@@]3(COC(=O)c4cccnc4)[C@@H]([C@@H]4[C@H](C[C@H]3OC(C)=O)C4(C)C)[C@](C)(O)C(=O)[C@@]2(O)C[C@@H]1C` [EUPHORBIALOID A] yielded a concentration for half-maximal inhibition (IC50) in the data set with BV-2 [1] of 19.4 µM. The Activity result with BV-2 [2] is “Non-toxic”.

As to `CCC(=O)O[C@@H]1[C@@H]2[C@@H](OC(C)=O)[C@@]34CO[C@@](C)([C@H](OC(C)=O)[C@@]2(O)C[C@@H]1C)[C@@H]3[C@@H]1[C@@H](C[C@]1(C)OC(C)=O)[C@@H](OC(=O)c1cccnc1)C4=O` [EUPHORBIALOID G], in the data set with BV-2 [1], the IC50 was 48.7 µM. Moreover, in the data set with BV-2 [2], the Activity result is given as “Non-toxic”.

In turn, `CC(=O)O[C@@H]1[C@H]2[C@@H](OC(=O)c3cccnc3)[C@@H](C)C[C@]2(OC(C)=O)[C@@H](OC(C)=O)[C@]2(C)OC[C@]13C(=O)C=C[C@H](C(C)(C)OC(C)=O)[C@@H]23` [EUPHORBIALOID E] displayed a concentration for half-maximal inhibition (IC50) in the data set with BV-2 [1] of 33.7 µM. Moreover, the Activity entry with BV-2 [2] is given as “Non-toxic”.

Turning to `CC(=O)O[C@@H]1[C@H]2[C@@H](OC(=O)c3cccnc3)[C@](C)(OC(=O)C(C)C)C[C@]2(OC(C)=O)[C@H](OC(=O)c2ccccc2)[C@]2(C)OC[C@]13[C@H](OC(C)=O)C=C[C@H](C(C)(C)OC(C)=O)[C@@H]23` [EUPHORBIALOID J], the IC50 in the data set with BV-2 [1] is 43.8 µM. The Activity result in the data set on BV-2 [2] is recorded as “Non-toxic”.

Turning to `CCC(=O)O[C@@H]1[C@@H]2[C@@H](OC(C)=O)[C@@]34CO[C@@](C)([C@@H](OC(=O)c5ccccc5)[C@@]2(OC(C)=O)C[C@@]1(C)OC(=O)c1cccnc1)[C@@H]3[C@@H](C(C)(C)OC(C)=O)C=C[C@H]4OC(C)=O` [EUPHORBIALOID I], the IC50 with BV-2 [1] came to 41.3 µM. Moreover, in the data set on BV-2 [2], the Activity entry is “Non-toxic”.
